Read-outs that look alike come from different tables or passages of the source.

The target of assay [1] is T1, recombinant human cannabinoid receptor CB2 (Homo sapiens, UniProt P34972).
T1 construct: (cDNA clone) CNR0200000
As to the kind of experiment: Cannabinoid receptor radioligand binding assay, [3H]-CP 55,940 displacement, hCB2. In short, it runs like this: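 Membranes from hCB2-transfected cells, prepared by 1000×g then 40,000×g centrifugation, resuspended in 20 mM HEPES pH 7.4, 5 mM MgCl2, 1 mM EDTA, 10% sucrose.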

Assay [2] has as its target T2, human CB1 receptors (Homo sapiens, UniProt P21554).
T2 construct: (cDNA clone) CNR01L000
Description: cAMP assay in HEK-293 cells, hCB1 agonist. In kind it is cell-based. An outline of the steps:
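Stable hCB1 HEK-293 cells suspended in HBSS with 10 mM HEPES and 0.1% fatty acid-free BSA, incubated 30 min at 37° C. with compound plus forskolin (90 uM in the 3× compound solution). Lysed cAMP measured by enzyme-fragment kit; EC50 = 50% inhibition of forskolin-stimulated cAMP (forskolin maximum = 100%), sigmoidal fit.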
In general terms: cAMP levels reflect the balance of adenylyl cyclase and phosphodiesterase activity.

Assay [3] has as its target T3, human CB1 (hCB1) (Homo sapiens, UniProt P21554).
T3 construct: (cDNA clone) CNR01L000
As to the kind of experiment: 35S GTPγS binding assay, hCB1 agonist. It counts as biochemical. An excerpt: cDNA expression clones for human CB1 (hCB1, Genbank Accession No. AY225225) and human CB2 (hCB2, Genbank Accession No. AY242132) expressed in vector pcDNA3.1+ were purchased from UMR cDNA Resource Center, Rolla, Mo. (Clone ID CNR01L000 for hCB1; CNR0200000 for hCB2).
Stable, HEK-293-derived cell lines that recombinantly express hCBI or hCB2 were established. In brief, the clone hCB1 (CNR IL) or hCB2 (CNR2) was transfected into human embryonic kidney cells (HEK-293) using Lipofectamine 2000 (Gibco, Cat#11668-019) according to the manufacturer's protocol. Transfected clones were isolated by single colony purification and clones were screened for receptor expression using a whole cell, ^3H—CP 55,940 radioligand binding assay. HEK-293 stable cells were maintained in Dulbecco's modified Eagles medium (DMEM) containing 10% fetal bovine serum, 2 mM L-glutamine and 0.5 mg/mL G-418.
Membranes were isolated from transfected cells as follows. Monolayers of cultured cells were washed twice with phosphate-buffered saline (PBS). Cells were scraped into 20 mM HEPES, pH 7.4, 10 mM EDTA containing complete cocktail protease inhibitors (Roche, Catalog #11 697 498 001) and were homogenized by an electric-powered mechanical probe homogenizer (Omni GLH; probe G7-195S) for 40 seconds at 7000 rpm. Homogenates were centrifuged 10 minutes at 1000×g at 4° C. The supernatant was collected and was centrifuged for 1 hour at 40,000×g. The supernatant was then decanted and the resulting pellet was re-suspended in 20 mM HEPES, pH 7.4, 5 mM MgCl2, 1 mM EDTA, 10% sucrose with complete cocktail protease inhibitors. Protein concentration of membrane suspensions were measured by Bradford Protein Assay using bovine serum albumin as the standard (BioRad catalog #500-0006). Protein concentrations of membrane suspensions were adjusted with the final buffer in the range of 5 to 10 mg/mL and were stored at −80° C. until further use.
Functional assays which monitor G-protein coupled receptor or downstream cellular responses can be used to characterize potential CB1 receptor and/or CB2 receptor agonist or antagonist activities. Direct activation (or inhibition of activation) can be monitored using a GTPγS assay (membrane-based assay) or cAMP assay (whole cell-based assay).
^35S GTPγS binding assays were performed by incubating recombinant cell membranes prepared above (5 μg) in the presence of scintillation proximity assay beads (SPA beads, Catalog #RPNQ0252 GE Healthcare, Buckinghamshire, England) in GTPγS binding buffer [50 mM HEPES (pH 7.4), 100 mM NaCl, 5 mM MgCl2, 0.001% saponin (Sigma catalog #S4521)] supplemented with 20 uM GDP (Sigma catalog #G7127) in the presence or absence of test compound. The reaction was carried out in 96-well microplates with 0.1 nM [^35S]GTPγS (specific activity=1250 Ci/mmol; Perkin Elmer catalog #NEG030X250UC) in a final volume of 100 uL. After a 90 min room temperature incubation, the reaction was analyzed using a scintillation counter (Perkin Elmer Microbeta instrument). Binding data were analyzed using GraphPad Prism.
In general terms: Binding of GTPγS marks nucleotide exchange on a G protein.

Where [4] appears, read: inhibition of forskolin-stimulated cAMP, HEK-293 cells, read-out: hCB1 EC50 (cAMP ag).
Where [5] appears, read: GTPγS agonist, HEK-293 membranes, read-out: hCB1 EC50 (GTPyS ag).
Setting [6] is: inhibition of forskolin-stimulated cAMP, HEK-293 cells.

T3 sequence (P21554 whole entry): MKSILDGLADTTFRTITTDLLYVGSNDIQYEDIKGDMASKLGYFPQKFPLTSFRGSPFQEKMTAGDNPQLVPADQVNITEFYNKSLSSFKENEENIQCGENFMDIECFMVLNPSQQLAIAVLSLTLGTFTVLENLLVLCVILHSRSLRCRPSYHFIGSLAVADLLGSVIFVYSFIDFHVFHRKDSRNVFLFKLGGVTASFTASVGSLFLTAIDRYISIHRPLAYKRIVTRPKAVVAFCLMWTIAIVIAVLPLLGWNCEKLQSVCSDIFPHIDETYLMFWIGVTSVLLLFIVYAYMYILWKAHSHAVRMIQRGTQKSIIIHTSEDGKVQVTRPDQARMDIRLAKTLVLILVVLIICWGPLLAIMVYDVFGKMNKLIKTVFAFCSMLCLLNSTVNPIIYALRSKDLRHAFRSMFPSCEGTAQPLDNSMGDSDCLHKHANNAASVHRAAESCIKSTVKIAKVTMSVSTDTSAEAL
T2 sequence (P21554 whole entry): as above
T1 sequence (P34972 whole entry): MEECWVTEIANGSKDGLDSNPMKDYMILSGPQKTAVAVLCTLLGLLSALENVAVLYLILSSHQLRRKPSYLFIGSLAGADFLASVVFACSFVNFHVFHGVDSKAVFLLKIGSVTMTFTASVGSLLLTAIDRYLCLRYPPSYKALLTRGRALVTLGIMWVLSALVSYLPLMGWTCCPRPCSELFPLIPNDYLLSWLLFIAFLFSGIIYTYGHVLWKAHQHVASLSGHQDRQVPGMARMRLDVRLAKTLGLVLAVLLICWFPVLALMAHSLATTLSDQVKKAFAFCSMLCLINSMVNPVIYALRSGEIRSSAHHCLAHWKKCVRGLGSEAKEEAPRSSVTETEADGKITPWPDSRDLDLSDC

Regarding `Cc1cc2cc(C(=O)c3ccccc3OC(F)(F)F)sc2n1CCN1CCOCC1` [Compound 15, (5-Methyl-6-(2-morpholinoethyl)-6H-thieno[2,3-b]pyrrol-2-yl)(2-(trifluoromethoxy)phenyl)methanone], the concentration for half-maximal inhibition (IC50) in assay [1] was under 100 nM. Further, the EC50 in assay [2] (setting [4]) and in assay [3] (setting [5]) was 100 to 1000 nM each time.

As for `Cc1c(Cl)c2cc(C(=O)c3cccc(Cl)c3Cl)sc2n1CCN1CCOCC1` [Compound 27, (4-chloro-5-methyl-6-(2-morpholinoethyl)-6H-thieno[2,3-b]pyrrol-2-yl)(2,3-dichlorophenyl)methanone], the IC50 in assay [1] was under 100 nM. In addition, the EC50 in assay [2] and in assay [3] was 100 to 1000 nM each time.

For `Cc1cc2cc(C(=O)c3cc(Cl)ccc3Cl)sc2n1CCN1CCOCC1` [Compound 35, (2,5-Dichlorophenyl)(5-methyl-6-(2-morpholinoethyl)-6H-thieno[2,3-b]pyrrol-2-yl)methanone], in assay [1], the IC50 was under 100 nM. In assay [2] (setting [6]), the “hCB1 EC50 (cAMP ag, nM)” value is “NS (NS means “Not Significant,” which means less than 30% agonist activity when compared to the positive control.)”. The EC50 in assay [3] (setting [5]) lay within 100 to 1000 nM.

As to `COc1ccc(C(=O)c2cc3cc(C)n(CCCNC(=O)C(F)(F)F)c3s2)cc1` [Compound 76, 2,2,2-Trifluoro-N-(3-(2-(4-methoxybenzoyl)-5-methyl-6H-thieno[2,3-b]pyrrol-6-yl)propyl)acetamide], in assay [1], the IC50 is 100 to 1000 nM. Moreover, in assay [2] (setting [6]), the “hCB1 EC50 (cAMP ag, nM)” value is “NS (NS means “Not Significant,” which means less than 30% agonist activity when compared to the positive control.)”. The EC50 in assay [3] (setting [5]) is under 100 nM.

With `COc1ccc(C(=O)c2cc3cc(C)n(CCC(C)(C)O)c3s2)cc1` [Compound 77, (6-(3-Hydroxy-3-methylbutyl)-5-methyl-6H-thieno[2,3-b]pyrrol-2-yl)(4-methoxyphenyl)methanone], the IC50 in assay [1] lay in the range of 1000 to 10000 nM. Moreover, the EC50 in assay [2] (setting [4]) was 1000 to 10000 nM; in assay [3] (setting [5]), under 100 nM.

Take `Cc1ccc(C(=O)c2cc3cc(C)n(CCN4CCOCC4)c3s2)c(Cl)c1` [Compound 86, (2-Chloro-4-methylphenyl)(5-methyl-6-(2-morpholinoethyl)-6H-thieno[2,3-b]pyrrol-2-yl)methanone]: the IC50 in assay [1] was under 100 nM. In addition, the EC50 in assay [2] (setting [4]) and in assay [3] (setting [5]) was 1000 to 10000 nM throughout.

As for `COc1ccc(C(=O)c2cc3cc(C)n(CCCN4CCOCC4)c3s2)cc1` [Compound 107, (4-Methoxyphenyl)(5-methyl-6-(3-morpholinopropyl)-6H-thieno[2,3-b]pyrrol-2-yl)methanone], the IC50 in assay [1] was under 100 nM. Moreover, the EC50 in assay [2] (setting [4]) and in assay [3] (setting [5]) was 100 to 1000 nM in each case.

As to `COc1ccc(C(=O)c2cc3cc(C)n(CCN4CCOCC4)c3s2)c(Cl)n1` [Compound 137, (2-chloro-6-methoxypyridinyl-3-yl)(5-methyl-6-(2-morpholinoethyl)-6H-thieno[2,3-b]pyrrol-2-yl)methanone], the IC50 in assay [1] is under 100 nM. For the same molecule, the EC50 lay within 100 to 1000 nM in assay [2] (setting [4]) and 1000 to 10000 nM in assay [3] (setting [5]).

`COCCN(C)CCn1c(C)cc2cc(C(=O)c3ccc(OC)nc3)sc21` [Compound 157]: in assay [2] (setting [6]), the “hCB1 EC50 (cAMP ag, nM)” value was “NS (NS means “Not Significant,” which means less than 30% agonist activity when compared to the positive control.)”. The EC50 in assay [3] (setting [5]) is over 10000 nM.

Consider `COc1ccc(C(=O)c2cc3cc(C)n(CC(OC)OC)c3s2)cn1` [Compound 161, (6-(2,2-dimethoxyethyl)-5-methyl-6H-thieno[2,3-b]pyrrol-2-yl)(6-methoxypyridin-3-yl)methanone], for which the “hCB1 EC50 (cAMP ag, nM)” value in assay [2] (setting [6]) is “NS (NS means “Not Significant,” which means less than 30% agonist activity when compared to the positive control.)”. For the same molecule, the EC50 in assay [3] (setting [5]) was over 10000 nM.

As to `Cc1cc2cc(C(=O)c3ccc(O)cc3F)sc2n1CCN1CCOCC1` [Compound 165, (2-fluoro-4-hydroxyphenyl)(5-methyl-6-(2-morpholinoethyl)-6H-thieno[2,3-b]pyrrol-2-yl)methanone], the EC50 in assay [2] (setting [4]) was 100 to 1000 nM; in assay [3] (setting [5]) it was over 10000 nM.

`COc1ccc(C(=O)c2cc3cc(C)n(CC4CCC(F)(F)CC4)c3s2)cn1` [Compound 170, (6-((4,4-difluorocyclohexyl)methyl)-5-methyl-6H-thieno[2,3-b]pyrrol-2-yl)(6-methoxypyridin-3-yl)methanone]: the IC50 in assay [1] lay within 100 to 1000 nM. The EC50 in assay [2] (setting [4]) and in assay [3] (setting [5]) was under 100 nM throughout.

As a reminder, the IC50 is the midpoint of a concentration-inhibition curve. Broadly, the EC50 is the concentration at which the effect is half-maximal.

The values are drawn from patent publication US20130029970A1 (priority 2009, published 2013).
